The test deals with RNA polymerase II Serine 5 phosphorylation (Rpb1 CTD), downstream substrate of CDK7. The experiment in a line: Imaging-based cellular RNA PolII Ser5 phosphorylation assay in A549 cells. The note with it: challenged with compound for 3 hours; for IC50: Homo sapiens, A549, 3 h, read-out: pRNA polII Ser5 (A549) pIC50 (converted). It is filed as cell-based, human. An excerpt: Dosing curves were fitted using the following equation to obtain IC50: Y=Bottom+(Top−Bottom)/(1+10^((log IC50−X)*Hill slope)) where X=log10 of the compound concentration; top and bottom can be defined by PC and NC respectively. Imaging-Based Cellular RNA PolII Ser5 Phosphorylation Assay
To evaluate inhibition of CDK7 kinase activity, a 384-well automated imaging assay was used. This assay detects Serine 5 phosphorylation on a unique heptapeptide sequence in the C-terminal domain of Rpb1 subunit of RNA polymerase II, the downstream substrate of CDK7. This heptapeptide sequence is repeated up to 52 times in the CTD of Rpb1.
A549 adenocarcinoma human alveolar basal epithelial cells (ATCC, CCL-185), rabbit Phospho-Rpb1 CTD (Ser5) antibody (D9N51 (Cell Signaling Technology)), DMEM (Sigma), Fetal Bovine Serum (Biowest), L-glutamine (Sigma), Penicillin/Streptomycin (Life Technologies), Sodium Pyruvate (Sigma), Hepes (Sigma), poly-D-lysine coated μclear 384 black plates (Greiner), formaldehyde (PolySciences), D-PBS (Sigma), Methanol (Sigma), Alexa Fluor 488 goat anti rabbit IgG secondary antibody (Life Technologies), HCS CellMask™ Deep Red stain (Life Technologies), Hoechst 33258 (Invitrogen).
RNA Polymerase II Serine 5 phosphorylation was detected using a specific rabbit Phospho-Rpb1 CTD (Ser5) antibody. A549 adenocarcinoma human alveolar basal epithelial cells were seeded in 20 μl medium (DMEM supplemented with 1% Fetal Bovine Serum (heat inactivated 30′ 56° C.), 2 mM L-glutamine, 50 U/ml penicillin 50 μg/ml streptomycin, 1 mM sodium pyruvate and 50 mM hepes) at 1000 cells/well and cultured in poly-D-lysine coated μclear 384 black plates for 20 hours at 37° C. and 5% CO2.
After incubation cells were challenged with compound for 3 hours at 37° C. and 5% CO2. DMSO was used as high control and as low control 10 μM of LDC4297 reference compound was used. 40 nl of test compounds and controls were spotted in cell plates using Echo Liquid Handler (Echo 550, Labcyte). Incubation was followed by 20 minutes fixation with 20 μl 10% formaldehyde at room temperature. Medium/formaldehyde solution was removed, plates were washed 3 times with 30 μl D-PBS (w/o Ca^2+ and Ma^2+) and permeabilization was done by adding 20 μl ice cold methanol for 20 minutes. Cells were washed again 3 times with 30 μl D-PBS and 20 μl blocking buffer (25 ml fetal bovine serum in 500 ml D-PBS) was added for 1 hour.
After removing blocking buffer 20 μl 1/1000 primary antibody rabbit. Phospho-Rpb1 CTD (Ser5) antibody was added which binds to the phosphorylated Serine5 of the heptapeptide sequences in the CTD of Rpb1. Primary antibody was removed, and plates were washed 3 times with 30 μl D-PBS followed by addition of 20 μl 1/2000 Alexa Fluor 488 goat anti rabbit IgG secondary antibody for final detection of Phospho-Rpb1 CTD (Ser5) together with 1/5000 HCS CellMask™ Deep Red stain for membrane staining and 1/5000 Hoechst 33258 for nucleus staining. Last, plates were washed 2 times with 30 μl D-PBS and wells were filled with 40 μL D-PBS, plates were sealed (Thermowell sealing tape) and stored at 4° C. until reading. Plates were read with Opera Phenix (Perkin Elmer) with 10× air objective. Data were calculated and analyzed in Phaedra.
IC50 values were calculated using the following formula:
Average value of all HC's and all LC's are used for normalizations. % Effect=100−(sample−LC)/(HC−LC)×100% Control=(sample/HC)×100
A best-fit curve is fitted by a minimum sum of squares method to the plot of % Control vs. compound concentration. From this an IC50 value can be obtained. An estimate of the slope of the plot in terms of the Hill coefficient is also obtained.

Some results are limits rather than exact numbers.

In the case of `C[C@@H]1Cc2cnc(N[C@H]3CCOC4(CCCC4)C3)nc2CN1C(=O)[C@H]1CCN(C)C[C@@H]1c1ccccc1` (relative stereo) [Compound 16], the IC50 was 40.7 nM.

As for `C[C@@H]1Cc2cnc(N[C@H]3COc4ccccc43)nc2CN1C(=O)[C@H]1CCN(C)C[C@@H]1c1ccccc1` (relative stereo) [Compound 17], the IC50 is 363 nM. On the same count and under the same terms, next, `C[C@@H]1Cc2cnc(N[C@@H]3COc4ccccc43)nc2CN1C(=O)[C@H]1CCN(C)C[C@@H]1c1ccccc1` (relative stereo) [Compound 18]: 490 nM. Turning to `[2H]C([2H])([2H])c1cccc([C@@H]2CN(C)CC[C@H]2C(=O)N2Cc3nc(Nc4cnn(C)c4)ncc3C[C@H]2C)c1` (relative stereo) [Compound 97], the “pRNA polII Ser5 (A549) pIC50” value turned out to be 6.23. Still for that read-out and setting: next, `[2H]C([2H])([2H])c1cccc([C@@H]2CN(C)CC[C@H]2C(=O)N2Cc3nc(Nc4cnn(C)c4)ncc3C[C@H]2C)c1` (relative stereo) [Compound 98]: ~7.6. For the molecule `[2H]C([2H])([2H])c1cccc([C@@H]2CN(C)CC[C@H]2C(=O)N2Cc3nc(NCc4ccn(C)n4)ncc3C[C@H]2C)c1` (relative stereo) [Compound 99], the IC50 is 603 nM.

Consider `[2H]C([2H])([2H])c1cccc([C@H]2CN(C)CC[C@@H]2C(=O)N2Cc3nc(NCc4ccn(C)n4)ncc3C[C@H]2C)c1` (relative stereo) [Compound 100], for which the IC50 was ~26.3 nM. The same measure, in the same setting: the value for `C[C@@H]1Cc2cnc(NCc3ccn(C)n3)nc2CN1C(=O)[C@H]1CCN(C)C[C@@H]1c1cccc(C2CC2)c1` (relative stereo) [Compound 121] was < 2.45 nM; that for `C[C@@H]1Cc2cnc(NCc3ccn(C)n3)nc2CN1C(=O)[C@@H]1CCN(C)C[C@H]1c1cccc(C(F)F)c1` (relative stereo) [Compound 123] was 2400 nM.

Turning to `C[C@@H]1Cc2cnc(NCc3ccn(C)n3)nc2CN1C(=O)[C@H]1CCN(C)C[C@@H]1c1cccc(C(F)F)c1` (relative stereo) [Compound 124], the IC50 was ~44.7 nM. The same measure, in the same setting: the value for `CC(C)Oc1cccc([C@@H]2CN(C)CC[C@H]2C(=O)N2Cc3nc(NCc4ccn(C)n4)ncc3C[C@H]2C)c1` (relative stereo) [Compound 138a] was > 10000 nM; that for `CC(C)Oc1cccc([C@H]2CN(C)CC[C@@H]2C(=O)N2Cc3nc(NCc4ccn(C)n4)ncc3C[C@H]2C)c1` (relative stereo) [Compound 138b] was 182 nM. Still for that read-out and setting: next, `C[C@@H]1CN(C)CC[C@H]1C(=O)N1Cc2nc(NCc3ccn(C)n3)ncc2C[C@H]1C` (relative stereo) [Compound 147]: 813 nM.

In the case of `CC(C)N1CC[C@H](C(=O)N2Cc3nc(NC4CCOCC4)ncc3C[C@H]2C)[C@@H](c2ccccc2)C1` (single isomer, unassigned) [Compound 157], the IC50 was 178 nM. On the same count and under the same terms, the value for `CCN1CC[C@H](C(=O)N2Cc3nc(NC4CCOCC4)ncc3C[C@H]2C)[C@@H](c2ccccc2)C1` (single isomer, unassigned) [Compound 158] was 77.6 nM; that for `C[C@@H]1Cc2cnc(NC3CCOCC3)nc2CN1C(=O)[C@H]1CCN(C2COC2)C[C@@H]1c1ccccc1` (single isomer, unassigned) [Compound 159] was > 10000 nM; that for `[2H]C([2H])([2H])N1CC[C@@H](C(=O)N2Cc3cc(NCc4ccn(C)n4)ncc3C[C@@H]2C)[C@H](c2ccccc2)C1` (single isomer, unassigned) [Compound 178] was 3720 nM.

Regarding `Cc1cccc([C@@H]2CN(C)CC[C@H]2C(=O)N2Cc3cc(Nc4cnn(C)c4)ncc3C[C@@H]2C)c1` (single isomer, unassigned) [Compound 179], the IC50 is ~83.2 nM.

As for `CO[C@H]1CC[C@H](Nc2ncc3c(n2)CN(C(=O)[C@H]2CCN(C)C[C@@H]2c2ccccc2)C(C)(C)C3)CC1` (single isomer, unassigned) [Compound 190], the IC50 was 240 nM.

For `CCO[C@H]1CC[C@H](Nc2ncc3c(n2)CN(C(=O)[C@H]2CCN(C)C[C@@H]2c2ccccc2)[C@H](C)C3)CC1` [Compound 19], the IC50 is 41.7 nM. As to `C[C@@H]1Cc2cnc(Nc3ccnc(C4CC4)c3)nc2CN1C(=O)[C@H]1CCN(C)C[C@@H]1c1ccccc1` [Compound 76], the IC50 was ~33.1 nM. On the same count and under the same terms, next, `C[C@@H]1Cc2cnc(Nc3cnn(CC4CC4)c3)nc2CN1C(=O)[C@H]1CCN(C)C[C@@H]1c1ccccc1` [Compound 80]: 18.6 nM; `Cc1nn(C)c(C)c1Nc1ncc2c(n1)CN(C(=O)[C@H]1CCN(C)C[C@@H]1c1ccccc1)[C@H](C)C2` [Compound 81]: 1350 nM; `C[C@@H]1Cc2cnc(Nc3cn(C)nc3C(F)(F)F)nc2CN1C(=O)[C@H]1CCN(C)C[C@@H]1c1ccccc1` [Compound 84]: 1120 nM. Still for that read-out and setting: the value for `C[C@@H]1Cc2cnc(Nc3cnn(CC(F)F)c3)nc2CN1C(=O)[C@H]1CCN(C)C[C@@H]1c1ccccc1` [Compound 85] was ~30.9 nM; that for `Cc1nn(C)cc1Nc1ncc2c(n1)CN(C(=O)[C@H]1CCN(C)C[C@@H]1c1ccccc1)[C@H](C)C2` [Compound 86] was 447 nM; that for `Cc1c(Nc2ncc3c(n2)CN(C(=O)[C@H]2CCN(C)C[C@@H]2c2ccccc2)[C@H](C)C3)cnn1C` [Compound 87] was 661 nM. Same read-out and setting: the value for `C[C@@H]1Cc2cnc(Nc3cnn(C4CCCC4)c3)nc2CN1C(=O)[C@H]1CCN(C)C[C@@H]1c1ccccc1` [Compound 88] was 28.8 nM; that for `Cc1cccc([C@H]2CN(C)CC[C@@H]2C(=O)N2Cc3nc(Nc4ccnc(C)c4)ncc3C[C@H]2C)c1` [Compound 135] was ~20.4 nM; that for `C[C@H]1Cc2cnc(NC3CCOCC3)nc2[C@H](C)N1C(=O)[C@H]1CCN(C)C[C@@H]1c1ccccc1` [Compound 196] was 776 nM.

Take `CN1CC[C@H](C(=O)N2Cc3nc(NCc4ccn(C)n4)ncc3[C@@H]3C[C@@H]32)[C@@H](c2ccccc2)C1` [Compound 198]: the IC50 was 234 nM.

Source of the values: US12679839B2, “Cyclin-dependent kinase 7 (CDK7) non-covalent inhibitors” (JANSSEN PHARMACEUTICA NV, priority 2020, dated 2026).
